Experimental data reported in US20230151025A1, “SUBSTITUTED THIAZOLOPYRIDINES, SALTS THEREOF AND THEIR USE AS HERBICIDALLY ACTIVE SUBSTANCES” (Bayer Aktiengesellschaft, priority 2020, published 2023).

How the values were obtained:
Assay type in all cases: in vivo
Veronica persica (VERPE) [1] = assay: Herbicidal post-emergence action (B), 1280 g/ha
Excerpt: (§1) ABUTH: Abutilon theophrasti AGSTE: Agrostis tenuis ALOMY: Alopecurus myosuroides AMARE Amaranthus retroflexus DIGSA: Digitaria sanguinalis ECHCG: Echinochloa crus-galli KCHSC: Kochia scoparia LOLRI: Lolium rigidum MATIN: Matricaria inodora POAAN: Poa annua POLCO: Polygonum convolvulus SETVI: Setaria viridis STEME: Stellaria media VERPE: Veronica persica VIOTR: Viola tricolor
(§2) Seeds of mono- and dicotyledonous weed plants were placed in plastic pots in sandy loam soil (doubly sown with in each case one species of mono- or dicotyledonous weed plants per pot), covered with soil and cultivated in a greenhouse under controlled growth conditions. 2 to 3 weeks after sowing, the test plants were treated at the one-leaf stage. The compounds of the invention, formulated in the form of wettable powders (WP) or as emulsion concentrates (EC), were applied onto the green parts of the plants as aqueous suspension or emulsion with addition of 0.5% additive at a water application rate of 600 liters per hectare (converted). After the test plants had been kept in the greenhouse under optimum growth conditions for about 3 weeks, the activity of the preparations was rated visually in comparison to untreated controls. For example, 100% activity=the plants have died, 0% activity=like control plants.
(§3) Tables B1 to B12, below, show the effects of selected compounds of the general formula (I) according to table 1 on various harmful plants and an application rate corresponding to 1280 g/ha obtained by the experimental procedure mentioned above.

[2] = tested on: Amaranthus retroflexus (AMARE); assay: Herbicidal post-emergence action (B), 1280 g/ha; settings: rated visually after about 3 weeks vs untreated controls
Excerpt: as §1, §2, §3

Stellaria media (STEME) [3] = assay: Herbicidal pre-emergence action (A), 1280 g/ha; settings: visual grading after ca. 3 weeks vs untreated controls
Excerpt: as §1
(§4) Seeds of mono- and dicotyledonous weed plants were sown in plastic pots (double sowings with one species of mono- and one species of dicotyledonous weed plants per pot), in sandy loam, and covered with soil. The compounds according to the invention, formulated in the form of wettable powders (WP) or as emulsifiable concentrates (EC), were applied to the surface of the covering soil as aqueous suspension or emulsion, with the addition of 0.5% of an additive, at an application rate of 600 l of water per hectare (converted). Following treatment, the pots were placed in a greenhouse and kept under optimum growth conditions for the test plants. The visual grading of the damage to the test plants was carried out after ca. 3 weeks in comparison to untreated controls (herbicidal effect in percent (%): 100% effect=plants have died off, 0% effect=as control plants).
(§5) Tables A1 to A12, below, show the effects of selected compounds of the general formula (I) according to table 1 on various harmful plants and an application rate corresponding to 1280 g/ha obtained by the experimental procedure mentioned above.

Stellaria media (STEME) [4] = assay: Herbicidal post-emergence action (B), 1280 g/ha
Excerpt: as §1, §2, §3

Veronica persica (VERPE) [5] = assay: Herbicidal pre-emergence action (A), 1280 g/ha; settings: visual grading after ca. 3 weeks vs untreated controls
Excerpt: as §1, §4, §5

[6] = tested on: Kochia scoparia (KCHSC; Bassia scoparia); assay: Herbicidal pre-emergence action (A), 1280 g/ha; settings: visual grading after ca. 3 weeks vs untreated controls
Excerpt: as §1, §4, §5

[7] = tested on: Kochia scoparia (KCHSC; Bassia scoparia); assay: Herbicidal post-emergence action (B), 1280 g/ha
Excerpt: as §1, §2, §3

Poa annua (POAAN) [8] = assay: Herbicidal pre-emergence action (A), 1280 g/ha; settings: visual grading after ca. 3 weeks vs untreated controls, 100% = plants have died off, 0% = as control plants
Excerpt: as §1, §4, §5

[9] = tested on: Matricaria inodora (MATIN); assay: Herbicidal pre-emergence action (A), 1280 g/ha; settings: visual grading after ca. 3 weeks vs untreated controls
Excerpt: as §1, §4, §5

[10] = tested on: Amaranthus retroflexus (AMARE); assay: Herbicidal pre-emergence action (A), 1280 g/ha; settings: visual grading after ca. 3 weeks vs untreated controls
Excerpt: as §1, §4, §5

Lolium rigidum (LOLRI) = assay: Herbicidal pre-emergence action (A), 1280 g/ha; settings: visual grading after ca. 3 weeks vs untreated controls, 100% = plants have died off, 0% = as control plants
Excerpt: as §1, §4, §5

[11] = tested on: Echinochloa crus-galli (ECHCG); assay: Herbicidal pre-emergence action (A), 1280 g/ha; settings: visual grading after ca. 3 weeks vs untreated controls, 100% = plants have died off, 0% = as control plants
Excerpt: as §1, §4, §5

Poa annua (POAAN) [12] = assay: Herbicidal post-emergence action (B), 1280 g/ha; settings: rated visually after about 3 weeks vs untreated controls
Excerpt: as §1, §2, §3

Setaria viridis (SETVI) = assay: Herbicidal pre-emergence action (A), 1280 g/ha; settings: visual grading after ca. 3 weeks vs untreated controls
Excerpt: as §1, §4, §5

SMILES	herbicidal effect VERPE (Veronica persica (VERPE) [1])	herbicidal activity AMARE [2]	herbicidal effect STEME (Stellaria media (STEME) [3])	POAAN, herbicidal effect in percent (%) (Poa annua (POAAN) [8])	other results
COc1nc2nc(-c3ccccc3)c(C)cc2s1 [Example I-006]	90%	90%			
Cc1nc2nc(-c3ccccc3F)ccc2s1 [Example I-019]			90%		herbicidal effect STEME (Stellaria media (STEME) [4]): 90%
Cc1cc2sc([S+](C)[O-])nc2nc1-c1ccccc1Cl (centres unmarked) [Example I-024]			100%		herbicidal effect VERPE (Veronica persica (VERPE) [5]): 90%; herbicidal effect KCHSC [6]: 100%; herbicidal effect KCHSC [7]: 90%
Cc1cc2sc([S+](C)[O-])nc2nc1-c1cccc(F)c1 (centres unmarked) [Example I-039]					herbicidal effect STEME (Stellaria media (STEME) [4]): 90%; herbicidal effect KCHSC [7]: 90%
CCc1cc2sc([S+](C)[O-])nc2nc1-c1ccccc1 (centres unmarked) [Example I-050]	90%	90%	90%	100%	herbicidal effect MATIN [9]: 90%; herbicidal effect AMARE [10]: 90%; LOLRI, herbicidal effect in percent (%) (Lolium rigidum (LOLRI)): 90%; herbicidal effect KCHSC [6]: 90%; ECHCG, herbicidal effect in percent (%) [11]: 100%
O=C(O)CNc1nc2nc(-c3ccccc3F)c(Br)cc2s1 [Example I-052]		100%			
Cc1cc2sc(Cc3ccccc3F)nc2nc1-c1ccccc1 [Example I-056]		100%	100%	100%	herbicidal activity POAAN (Poa annua (POAAN) [12]): 100%
CCc1cc2sc(S(C)(=O)=O)nc2nc1-c1ccccc1C [Example I-061]			90%		herbicidal effect VERPE (Veronica persica (VERPE) [5]): 90%; herbicidal effect AMARE [10]: 90%; herbicidal effect KCHSC [7]: 90%
C=CCNC(=O)CNc1nc2nc(-c3ccccc3F)c(Br)cc2s1 [Example I-067]		90%			
Cc1cc2sc(Cc3ccccc3F)nc2nc1-c1ccccc1F [Example I-073]			90%	100%	
Cc1cc2sc(S(C)(=O)=O)nc2nc1-c1ccccc1 [Example I-080]	90%		100%	100%	
Cc1nc2nc(-c3ccc(F)cc3)c(C)cc2s1 [Example I-090]		100%			herbicidal effect STEME (Stellaria media (STEME) [4]): 90%
CCc1cc2sc(OC)nc2nc1-c1ccccc1OC [Example I-097]	100%				herbicidal effect SETVI (Setaria viridis (SETVI)): 100%; herbicidal effect STEME (Stellaria media (STEME) [4]): 100%
CCOc1nc2nc(-c3ccccc3F)c(Br)cc2s1 [Example I-101]	90%				
CCc1cc2sc(SC)nc2nc1-c1ccccc1C [Example I-106]			100%		herbicidal effect SETVI (Setaria viridis (SETVI)): 100%
Cc1nc2nc(-c3ccccc3)c(C)cc2s1 [Example I-115]			100%	100%	herbicidal effect MATIN [9]: 90%; herbicidal effect SETVI (Setaria viridis (SETVI)): 100%; ECHCG, herbicidal effect in percent (%) [11]: 100%

SMILES	herbicidal effect VERPE (Veronica persica (VERPE) [1])	herbicidal activity AMARE [2]	herbicidal effect STEME (Stellaria media (STEME) [3])	POAAN, herbicidal effect in percent (%) (Poa annua (POAAN) [8])	other results
Cc1sc(Br)cc1-c1nc2ncsc2cc1Br [Example I-138]	90%		90%	100%	herbicidal effect SETVI (Setaria viridis (SETVI)): 90%; LOLRI, herbicidal effect in percent (%) (Lolium rigidum (LOLRI)): 90%; herbicidal activity POAAN (Poa annua (POAAN) [12]): 90%
Cc1nc2nc(-c3cc(Br)sc3C)c(Br)cc2s1 [Example I-142]				100%	herbicidal effect MATIN [9]: 100%
NC(=O)c1nc2nc(-c3ccccc3F)c(Br)cc2s1 [Example I-154, 6-bromo-5-(2-fluorophenyl)thiazolo[4,5-b]pyridine-2-carboxamide]	100%	90%	90%	90%	herbicidal effect AMARE [10]: 90%; herbicidal effect KCHSC [7]: 90%
Fc1ccccc1-c1nc2nc(S)sc2cc1Br [Example I-156, 6-bromo-5-(2-fluorophenyl)thiazolo[4,5-b]pyridine-2-thiol]		100%	90%		
CCc1cc2sc(S)nc2nc1-c1ccccc1 [Example I-162]	100%	90%	90%		herbicidal effect VERPE (Veronica persica (VERPE) [5]): 90%; herbicidal effect KCHSC [7]: 90%
COc1ccccc1-c1nc2nc(S)sc2cc1C [Example I-164]	90%			100%	herbicidal effect SETVI (Setaria viridis (SETVI)): 100%; herbicidal effect KCHSC [6]: 90%
Cc1cc2sc(S)nc2nc1C1=CCCCC1 [Example I-174]				100%	herbicidal effect AMARE [10]: 100%
Cc1cc(-c2nc3ncsc3cc2C)c(C)s1 [Example I-197]	90%			100%	herbicidal effect SETVI (Setaria viridis (SETVI)): 100%; herbicidal effect AMARE [10]: 90%; herbicidal effect KCHSC [6]: 90%
Cc1cc2scnc2nc1-c1c(C)sc(C)c1C [Example I-199]		100%	100%		herbicidal effect MATIN [9]: 90%
Cc1scc(-c2ccc3scnc3n2)c1C [Example I-201]			100%		herbicidal effect SETVI (Setaria viridis (SETVI)): 90%; herbicidal effect KCHSC [6]: 90%; ECHCG, herbicidal effect in percent (%) [11]: 100%; herbicidal effect STEME (Stellaria media (STEME) [4]): 90%
Cc1cnsc1-c1nc2ncsc2cc1Br [Example I-202]			100%		
Cc1cc2scnc2nc1-c1scnc1C [Example I-203]		90%	90%		herbicidal effect SETVI (Setaria viridis (SETVI)): 100%; herbicidal effect AMARE [10]: 90%; ECHCG, herbicidal effect in percent (%) [11]: 100%; herbicidal effect STEME (Stellaria media (STEME) [4]): 90%
Cc1ncsc1-c1nc2ncsc2cc1Br [Example I-204]	90%		90%	90%	herbicidal effect SETVI (Setaria viridis (SETVI)): 100%; herbicidal effect AMARE [10]: 90%; ECHCG, herbicidal effect in percent (%) [11]: 90%
Cc1cnsc1-c1nc2nc(S)sc2cc1Br [Example I-208]	90%	100%			
Cc1ncsc1-c1nc2nc(S)sc2cc1Br [Example I-209]	90%	90%			
